System: hiPSCs (WTC-11) differentiating to ameloblasts (iAM)
Test: AMBN expression (QRT-PCR) in hiPSC-derived ameloblast (iAM) differentiation, day 10 to day 16, factors removed or added
Assay type: cell-based, human
Settings: for expression of AMBN when the factor is removed: factor removed independently from differentiation day 10 to day 16, compared to when all factors are present
Procedure: FIGS. 7A-7E: (FIG. 7A) Schematic of the 16-day differentiation protocol produced, which targets the identified signaling pathways utilizing growth factors and small molecules to transition through the ameloblast developmental trajectory. […] Each study was performed in triplicate, with error bars representing SEM. (FIG. 7C) The efficiency of each pathway activated in the differentiation from day 10 to day 16 were assessed by removing each agonist one at a time or adding FGFR2 mini binder to inhibit the FGFR2 pathway. AMBN expression was assessed in QRT-PCR, and each condition was performed in triplicate. Significance was determined by unpaired Student's t-test; ***p<0.001; ****p<0.0001; Graph error bars are the means±SEM.
To dissect which pathways were essential for the differentiation from day 10 to day 16, the process of elimination was used (FIG. 7C). […] It was hypothesized that the cells in culture secrete enough FGF ligands to saturate the receptors, and any exogenous ligands would have minimal effects. To test this hypothesis, a computationally designed protein was used, FGFR2 mini-binder (FGFR-mb), that specifically binds and inhibits the activity of the FGFR2 (Cao et al., 2022). […] This marks the importance of highly specific AI-designed mini-proteins in analyzing the requirement of signaling pathways in differentiation. It is plausible that temporal preciseness and high penetrance, combined with specificity of designed mini-binders to their targets may partially out-compete in the future genetic perturbations of signaling pathway in iPSC derived differentiation paradigms.
Briefly, hiPSCs (WTC-11 human induced pluripotent stem cells) (Coriell, #GM25256) were seeded on 12-well plates coated with growth factor-reduced Matrigel (Corning, #356231) and cultured in mTeSR1 stem cell medium (StemCell Technologies, #85850) until cells reach confluency with medium changes daily. On the first day of differentiation (deemed Day 0), stem cell media is replaced with ameloblast base media consisted of either EpiCult-C media (StemCell Technologies, #05630) or RPMI 1640 Medium (Thermo, #11875093) mixed with EpiLife (Thermo, #MEPI500CA) at 1:1 ratio, supplemented with 0.1× supplement S7 (Thermo, #S0175), 0.1 uM β-mercaptoethanol (BME) (Sigma, #M7522) and 400 um smoothened agonist (SAG) (Selleckchem, #S7779). At day 3 of differentiation 150 μM of bone morphogenic protein-4 (BMP4) (rndsystems, #314-BP-010) is continuously added daily till day 7. At day 8, the base media is supplemented with 1 uM of BMP-I inhibitor (LDN-193189) (Tocris, #6053), 5 uM of GSK3-Inhibitor (CHIR99021) (Selleckchem, #4423), 500 μM epidermal growth factor (EGF) (rndsystems, #236-EG) and 3.5 μM of Neurotrophin-4 (NT4) (rndsystems, #268-N4). The cultures were then harvested at day 10 at an oral epithelium stage, or extended to day 16 by adding 300 μM BMP4, and 800 nM transforming growth factor beta 1(TGFβ1) (rndsystems, #7754-BH) for the early ameloblast stage at day 16. For testing FGFR signaling requirement for the maturation process we added 50 nM purified FGFR-mb (see below) to the media at day 14 and harvested the samples at day 16 of the differentiation.
RNA was extracted using Trizol (Life Technologies) according to manufacturer's instructions. RNA samples were treated with Turbo DNase (Thermo Fisher Scientific) and quantified using Nanodrop ND-1000. Reverse transcription was performed using iScript cDNA Synthesis Kit (Bio-Rad). […]

Compound	expression of AMBN when the factor is removed	AMBN expression on adding bFGF (bFGF added to differentiation day 10 to day 16)
Cc1cnc(-c2cnc(NCCNc3ccc(C#N)cn3)nc2-c2ccc(Cl)cc2Cl)[nH]1 [GSKi, 6-[[2-[[4-(2,4-dichlorophenyl)-5-(5-methyl-1H-imidazol-2-yl)-2-pyrimidinyl]amino]ethyl]amino]-3-pyridinecarbonitrile, reference compound]	completely abolished AMBN expression	
CN[C@H]1CC[C@H](N(Cc2cccc(-c3ccncc3)c2)C(=O)c2sc3ccccc3c2Cl)CC1 [SAG, 3-chloro-N-[(1r,4r)-4-(methylamino)cyclohexyl]-N-[3-(pyridin-4-yl)benzyl]benzo[b]thiophene-2-carboxamide, reference compound]	significantly reduced to less than half	
EGF: epidermal growth factor (NSDSECPLSHDGYCLHDGVCMYIEALDKYACNCVVGYIGERCQYRDLKWWELR; Epidermal growth factor; UniProt P01133 971-1023, looked up)	significantly reduced to less than half	
TGFβ1: transforming growth factor beta 1	significantly reduced to less than half	
bFGF: exogenous FGF ligand added to the differentiation		no significant effect
